In patent US9687479B2, “Multisubstituted aromatic compounds as serine protease inhibitors” (VERSEON CORPORATION, priority 2013, dated 2017) one finds IC50 data, which are given here for 61 compounds.

As usually defined, the IC50 is the concentration that gives 50% inhibition.

SMILES strings stand for the structures.

In one assay the target is Human KLKB1 (Homo sapiens (Human), UniProt P03952). Description: KLKB1 kallikrein activity inhibition assay (chromogenic substrate S-2302). The assay is classed as biochemical. The note with it: Table B. As to the method: The KLKB1 kallikrein activity reported herein (e.g., Tables B, C, and D) was obtained as follows. Human KLKB1 protein was obtained from Enzyme Research Labs. […] KLKB1 was assayed in buffer containing 0.05 M Tris (pH 7.4), 0.01 M NaCl and 0.2% w/v PEG-8000. The final concentration of enzyme used was 3 nM KLKB1. […] All assays were performed in 96-well microtiter plates at room temperature (RT). […] Inhibitor IC50 values were determined by adding test compound as ten point, three-fold serial dilutions in buffer solution, as known in the art. The plate was read at 10 minutes after substrate addition. The IC50 was calculated by plotting the percent (%) inhibition against compound concentration and fitting the data to a constrained four parameter sigmoidal curve, as known in the art.
Sequence of Human KLKB1 (P03952 391-638 limits assumed): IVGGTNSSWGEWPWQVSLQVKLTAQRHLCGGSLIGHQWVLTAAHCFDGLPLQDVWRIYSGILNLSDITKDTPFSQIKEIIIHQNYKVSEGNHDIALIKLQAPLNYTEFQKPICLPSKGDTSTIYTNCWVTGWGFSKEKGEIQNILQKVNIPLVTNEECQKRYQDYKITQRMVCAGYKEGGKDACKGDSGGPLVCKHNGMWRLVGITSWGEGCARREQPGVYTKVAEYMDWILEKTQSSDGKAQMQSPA
Sequence of Human KLKB1 (P03952 20-390 partner limits assumed): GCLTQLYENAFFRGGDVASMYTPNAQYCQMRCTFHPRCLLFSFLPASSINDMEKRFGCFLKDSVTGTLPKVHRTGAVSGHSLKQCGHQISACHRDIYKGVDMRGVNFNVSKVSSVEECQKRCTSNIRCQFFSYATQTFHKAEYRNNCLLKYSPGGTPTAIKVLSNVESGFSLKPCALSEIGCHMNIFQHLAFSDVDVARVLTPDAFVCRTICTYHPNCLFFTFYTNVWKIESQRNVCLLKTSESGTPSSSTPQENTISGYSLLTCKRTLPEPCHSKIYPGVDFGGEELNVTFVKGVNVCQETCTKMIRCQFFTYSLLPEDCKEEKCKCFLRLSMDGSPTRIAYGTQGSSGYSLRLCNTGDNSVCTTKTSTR
`CC(C)(C)C(=O)n1nc(-c2ccccn2)cc1NCc1ccco1` [Cmpd 280, 1-5-[(furan-2-ylmethyl)amino]-3-(pyridin-2-yl)-1H-pyrazol-1-yl-2,2-dimethylpropan-1-one] came in with an IC50 greater than 100 µM.

The compound `COc1ccccc1C(=O)n1nc(-c2ccccn2)cc1NCc1ccco1` [Cmpd 283] registered an IC50 greater than 100 µM.

As for `COc1ccccc1C(=O)n1nc(C2CCOCC2)cc1NCc1ccc(Cl)s1` [Cmpd 284], the IC50 is greater than 100 µM.

In turn, `O=C(c1ccoc1)n1nc(-c2ccccn2)cc1NCc1ccc(Cl)s1` [Cmpd 288] came in with a 50% inhibitory concentration (IC50) of 10 to 100 µM.

The compound `O=C(c1ccoc1)n1nc(-c2cccs2)cc1NCc1ccc(Cl)s1` [Cmpd 289] displayed an IC50 greater than 100 µM.

For `COc1ccccc1C(=O)n1nc(-c2ncccc2F)cc1NCc1ccc(Cl)s1` [Cmpd 290], the IC50 was greater than 100 µM.

Consider `O=C(c1ccoc1)n1nc(-c2ncccc2F)cc1NCc1ccc(Cl)s1` [Cmpd 291], for which the IC50 was greater than 100 µM.

Consider `O=C(c1ccoc1)n1nc(-c2ccccc2)c(F)c1NCc1ccc(Cl)s1` [Cmpd 295], for which the IC50 was greater than 100 µM.

In turn, `COc1ccccc1C(=O)n1nc(-c2ccccc2)c(F)c1NCc1ccccc1` [Cmpd 296] had an IC50 greater than 100 µM.

In turn, `CC(C)(C)OC(=O)N1CCC(c2cc(NCc3ccc(Cl)s3)n(C(=O)C(C)(C)C)n2)CC1` [Cmpd 297] came in with an IC50 greater than 100 µM.

As to `CC(C)(C)OC(=O)N1CCC(c2cc(NCc3ccc(Cl)s3)n(C(=O)c3ccsc3)n2)CC1` [Cmpd 298], the IC50 was greater than 100 µM.

Staying with this assay, now noted: Table C.
Regarding `Fc1ccc(CNc2nc(-c3ccccn3)nn2-c2nc3ccccc3s2)cc1` [Cmpd 299], the IC50 is greater than 100 µM.

In the case of `CC(C)(C)C(=O)n1nc(-c2ccco2)nc1NCc1ccc(F)cc1` [Cmpd 300], the IC50 fell in the range of 10 to 100 µM.

Turning to `CC(C)(C)C(=O)n1nc(-c2ccccn2)nc1NCc1ccc(F)cc1` [Cmpd 301], the IC50 lay within 10 to 100 µM.

With `CC(C)C(=O)n1nc(-c2ccccn2)nc1NCc1ccc(F)cc1` [Cmpd 302], the IC50 was in the range of 10 to 100 µM.

`O=C(Cc1ccccc1)n1nc(-c2ccccn2)nc1NCc1ccc(F)cc1` [Cmpd 303] yielded an IC50 of 1 to 10 µM.

With `CC(C)CC(=O)n1nc(-c2ccccn2)nc1NCc1ccc(F)cc1` [Cmpd 304], the IC50 fell in the range of 10 to 100 µM.

As for `O=C(CCc1ccccc1)n1nc(-c2ccccn2)nc1NCc1ccc(F)cc1` [Cmpd 305], the IC50 is 10 to 100 µM.

In turn, `CCCC(=O)n1nc(-c2ccccn2)nc1NCc1ccc(F)cc1` [Cmpd 306] displayed an IC50 of 10 to 100 µM.

Compound `CCC(=O)n1nc(-c2ccccn2)nc1NCc1ccc(F)cc1` [Cmpd 307] displayed an IC50 of 10 to 100 µM.

As for `CC(C)(C)C(=O)n1nc(-c2cccnc2)nc1NCc1ccc(F)cc1` [Cmpd 308], the 50% inhibitory concentration (IC50) was in the range of 10 to 100 µM.

Regarding `COCC(=O)n1nc(-c2cccnc2)nc1NCc1ccc(F)cc1` [Cmpd 309], the IC50 was greater than 100 µM.

As to `CC(C)C(=O)n1nc(-c2cccnc2)nc1NCc1ccc(F)cc1` [Cmpd 310], the IC50 was in the range of 10 to 100 µM.

In turn, `O=C(Cc1ccccc1)n1nc(-c2cccnc2)nc1NCc1ccc(F)cc1` [Cmpd 311] gave an IC50 of 1 to 10 µM.

The compound `CC(C)CC(=O)n1nc(-c2cccnc2)nc1NCc1ccc(F)cc1` [Cmpd 312] came in with an IC50 of 10 to 100 µM.

Compound `O=C(CCc1ccccc1)n1nc(-c2cccnc2)nc1NCc1ccc(F)cc1` [Cmpd 313] showed an IC50 of 10 to 100 µM.

For `CCCC(=O)n1nc(-c2cccnc2)nc1NCc1ccc(F)cc1` [Cmpd 314], the IC50 fell in the range of 10 to 100 µM.

Take `CC(C)C(=O)n1nc(-c2ccncc2)nc1NCc1ccc(F)cc1` [Cmpd 315]: the IC50 lay within 10 to 100 µM.

On to `CC(C)CC(=O)n1nc(-c2ccncc2)nc1NCc1ccc(F)cc1` [Cmpd 316], for which the 50% inhibitory concentration (IC50) is greater than 100 µM.

Take `CCCC(=O)n1nc(-c2ccncc2)nc1NCc1ccc(F)cc1` [Cmpd 317]: the IC50 is greater than 100 µM.

Consider `CCC(=O)n1nc(-c2ccncc2)nc1NCc1ccc(F)cc1` [Cmpd 318], for which the IC50 was greater than 100 µM.

With `COc1ccc(CNc2nc(-c3ccccn3)nn2C(=O)C(C)(C)C)cc1` [Cmpd 319], the IC50 fell in the range of 10 to 100 µM.

As for `COc1ccc(CNc2nc(-c3ccccn3)nn2C(=O)C(C)C)cc1` [Cmpd 320], the IC50 was greater than 100 µM.

The compound `COc1ccc(CNc2nc(-c3ccccn3)nn2C(=O)Cc2ccccc2)cc1` [Cmpd 321] registered an IC50 of 10 to 100 µM.

In turn, `COc1ccc(CNc2nc(-c3ccccn3)nn2C(=O)CC(C)C)cc1` [Cmpd 322] registered an IC50 of 10 to 100 µM.

For `CCCC(=O)n1nc(-c2ccccn2)nc1NCc1ccc(OC)cc1` [Cmpd 324], the IC50 is 10 to 100 µM.

In the case of `CCC(=O)n1nc(-c2ccccn2)nc1NCc1ccc(OC)cc1` [Cmpd 325], the IC50 is 10 to 100 µM.

`COc1ccc(CNc2nc(-c3cccnc3)nn2C(=O)C(C)(C)C)cc1` [Cmpd 326]: the IC50 was greater than 100 µM.

`COc1ccc(CNc2nc(-c3cccnc3)nn2C(=O)Cc2ccccc2)cc1` [Cmpd 327] yielded an IC50 of 10 to 100 µM.

As for `COc1ccc(CNc2nc(-c3cccnc3)nn2C(=O)CC(C)C)cc1` [Cmpd 328], the IC50 is greater than 100 µM.

Compound `COc1ccc(CNc2nc(-c3cccnc3)nn2C(=O)CCc2ccccc2)cc1` [Cmpd 329] had an IC50 greater than 100 µM.

`CCCC(=O)n1nc(-c2cccnc2)nc1NCc1ccc(OC)cc1` [Cmpd 330] gave an IC50 of 10 to 100 µM.

`CC(C)(C)C(=O)n1nc(C2CCCO2)nc1NCc1ccc(Cl)s1` (stereo not shown) [Cmpd 331] registered an IC50 of 1 to 10 µM.

As for `COc1ccccc1C(=O)n1nc(-c2ccccc2)nc1NCc1nccs1` [Cmpd 333], the IC50 is greater than 100 µM.

`COc1ccccc1C(=O)n1nc(-c2ccccc2)nc1NCc1ccsc1` [Cmpd 335] displayed an IC50 of 10 to 100 µM.

On to `COc1ccc(CNc2nc(-c3ccccn3)nn2C(=O)c2ccco2)cc1` [Cmpd 336], for which the IC50 was in the range of 1 to 10 µM.

Turning to `COc1ccc(CNc2nc(-c3ccncc3)nn2C(=O)c2ccco2)cc1` [Cmpd 337], the IC50 is greater than 100 µM.

`COc1ccc(CNc2nc(-c3ccccn3)nn2C(=O)c2ccoc2)cc1` [Cmpd 338] showed an IC50 of 10 to 100 µM.

The compound `COc1ccc(CNc2nc(-c3cccnc3)nn2C(=O)c2ccoc2)cc1` [Cmpd 339] gave an IC50 greater than 100 µM.

With `CCC(=O)n1nc(-c2cccnc2)nc1NCc1cccs1` [Cmpd 340], the IC50 was in the range of 10 to 100 µM.

`COc1ccccc1C(=O)n1nc(C2CCN(C(=O)C(C)(C)C)CC2)nc1NCc1ccc(Cl)s1` [Cmpd 341] returned an IC50 of 0.1 to 1 µM.

In the case of `CC(C)(C)C(=O)n1nc(-c2ccco2)nc1NCc1ccccc1` [Cmpd 342], the IC50 was greater than 100 µM.

Compound `O=C(Cc1ccccc1)n1nc(-c2ccco2)nc1NCc1ccccc1` [Cmpd 343] displayed an IC50 greater than 100 µM.

Take `CC(C)(C)C(=O)n1nc(-c2ccccn2)nc1NCc1ccccc1` [Cmpd 344]: the IC50 lay within 10 to 100 µM.

In turn, `CC(C)C(=O)n1nc(-c2ccccn2)nc1NCc1ccccc1` [Cmpd 345] came in with an IC50 of 10 to 100 µM.

As for `CC(C)CC(=O)n1nc(-c2ccccn2)nc1NCc1ccccc1` [Cmpd 346], the IC50 was 10 to 100 µM.

`CCCC(=O)n1nc(-c2ccccn2)nc1NCc1ccccc1` [Cmpd 347] gave an IC50 of 10 to 100 µM.

`CCC(=O)n1nc(-c2ccccn2)nc1NCc1ccccc1` [Cmpd 348] gave an IC50 of 10 to 100 µM.

`CCC(=O)n1nc(-c2cccnc2)nc1NCc1ccccc1` [Cmpd 349] yielded an IC50 of 10 to 100 µM.

`CC(C)(C)C(=O)n1nc(-c2ccncc2)nc1NCc1ccccc1` [Cmpd 350] had an IC50 greater than 100 µM.

`CC(C)C(=O)n1nc(-c2ccncc2)nc1NCc1ccccc1` [Cmpd 351] showed an IC50 of 1 to 10 µM.
